These results are taken from patent US8759360B2, “Purine compounds” (Eli Lilly and Company, priority 2010, dated 2014).

For data set [1], the target named is T1, hCB2 (Homo sapiens, UniProt P34972). The experiment in a line: CB2 in vitro functional assay (SPA based GTP-γ-35S binding, agonist mode). Format: biochemical. The method, then: (§1) Exemplified compounds are tested in agonist mode using a SPA based GTP-γ-^35S binding assay. All assay components are prepared in assay buffer made up of 20 mM HEPES, 100 mM NaCl, 5 mM MgCl2, (pH 7.4 at room temperature). Semi-log compound dilutions are done in assay buffer containing BSA (final 0.125%). GTP-γ^35-S binding is measured in a 96 well format using a whole membrane capture technique for the CB1 assay and modifications of an antibody capture technique previously described (DeLapp et al. J Pharmacol Exp Ther 289:946-955, 1999) for the CB2 assay. All incubations are done at room temperature.
T1 sequence (P34972 whole entry): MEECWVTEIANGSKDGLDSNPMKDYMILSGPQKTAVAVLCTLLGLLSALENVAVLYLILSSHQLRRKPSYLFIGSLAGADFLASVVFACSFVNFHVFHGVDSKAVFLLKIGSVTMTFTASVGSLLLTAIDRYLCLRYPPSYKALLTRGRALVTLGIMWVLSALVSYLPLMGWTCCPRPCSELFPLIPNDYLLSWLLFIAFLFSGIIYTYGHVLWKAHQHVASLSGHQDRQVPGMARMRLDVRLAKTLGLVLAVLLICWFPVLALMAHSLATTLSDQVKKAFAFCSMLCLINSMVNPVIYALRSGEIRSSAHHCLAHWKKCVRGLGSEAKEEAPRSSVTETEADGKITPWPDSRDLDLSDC
hCB2-Sf9 membranes and GDP (1 uM final) are added to assay buffer and homogenized. Diluted compounds and membranes are added to the assay plate and pre-incubated for 15 minutes. This is followed by addition of GTP-γ-^35S ([…] final) and another 35 minute incubation. Next a mixture containing Nonidet P40 detergent (0.2% final), anti-Gi antibody (final dilution of 1:362), and 1.25 mg anti-rabbit antibody scintillation proximity assay beads are added. The plates are then sealed, vortexed, and incubated for an additional 2 hours before centrifuging and counting as for CB1.
To analyze data, first subtract background from all wells. Determine percent agonist efficacy by normalizing agonist/inverse agonist dose response data to a full agonist (methanandamide) response. […]
Background: Binding of GTPγS marks nucleotide exchange on a G protein.

A further data set addresses T2, hCB1 (Homo sapiens, UniProt P21554).
T2 construct: expressed in transfected cells; host or cells: CHO cells (membranes)
The experiment in a line: CB1 in vitro functional assay (SPA based GTP-γ-35S binding, agonist mode). Type of data set: biochemical. As to the method: as §1
hCB1-CHO membranes, GDP (1 uM final), and saponin (10 ug/mL final) are added to assay buffer and homogenized. Diluted compounds, GTP-γ-^35S (500 nM final) and membranes are added to the assay plate and incubated for 30 minutes. Then 1 mg/well Wheatgerm Agglutinin SPA bead is added, and the plates are sealed, vortexed, and incubated for an additional hour. Plates are then centrifuged at 700×g for 10 minutes and counted for 1 minute per well using a scintillation counter.
To analyze data, first subtract background from all wells. Determine percent agonist efficacy by normalizing agonist/inverse agonist dose response data to a full agonist (methanandamide) response. Analyze the data using a 4-parameter logistic reduced fit with Activity Base and XLFit3.

Another data set relates to male Lewis rats. Kind of data set: Monoiodoacetate (MIA) model, incapacitance testing. Type of data set: in vivo. To be noted: rat, single dose. The method, then:
For all studies male Lewis rats of approximately 8 weeks of age at the time of MIA injection are used to measure pain in the MIA model. The rats are housed in groups of 2 or 3 per cage and maintained in a constant temperature and on a 12 hour light/12 hour dark cycle. Animals have free access to food and water at all times except during data collection.
In the standard MIA model the right knees of each rat are injected with 0.3 mg MIA in 50 ul of saline and the left knees with 50 ul of saline. Pain is measured at varying times after MIA injection (not normally before 10 day post MIA injection) using incapacitance testing. This measures the difference in hind paw weight bearing between the MIA and saline injected knees, and each measurement is the average of 3 separate measurements each measured over 1 second.
For studies with CB2 agonists rats are randomized into dose groups (n=5 or 6) and then dosed once with the compound under investigation. Dosing is staggered by 15 minutes for each rat and at a predetermined time post-dose (usually 2 hours), pain measured using incapacitance testing. Studies are routinely run with 4 groups, vehicle (1% carboxy methyl cellulose in water plus 0.25% polysorbate 80) and 3 compound groups which can be either single compounds at a single dose or the same compound at 3 doses. Results are reported as the difference in weight bearing between saline and MIA injected knees and statistical comparisons are made between vehicle treated and compound treated animals to assess the effect of compounds on knee pain in the model.

The test system of data set [2] is Male Harlan Sprague Dawley rats. Kind of data set: Chemotherapy-induced pain assay (paclitaxel, von Frey). Type of data set: in vivo, rat. The conditions noted are these: for Mean paw withdrawal latencies (mean ± SE): 1 hour post-dose, n of 12. The method, then:
Male Harlan Sprague Dawley rats 150-200 grams are acclimated to the vivarium for 7 days. The animals are maintained in a constant temperature and on a 12 hour light/12 hour dark cycle, and housed in groups of 3-4 with water and food ad libitum. Twice daily dosing of compound at 10 mg/kg (oral), morphine at 5 mg/kg, and vehicle commences on Day 1 of the study, and continues through the duration of the study (Day 18). Paclitaxel at 1 mg/kg (intraperitoneal) is administered on Days 2, 4, 6, and 8, for a cumulative dose of 4 mg/kg in order to induce chemotherapy-induced peripheral neuropathy.
Rats are placed in individual plexiglass chambers with a wire mesh platform bottom to allow access to the hindpaw. After an acclimation period of 15 minutes to 1 hour, the mid-plantar hind paws are assessed within the sciatic nerve distribution. A series of 8 von Frey hairs with logarithmically incremental stiffness (0.41, 0.70, 1.20, 2.00, 3.63, 5.50, 8.50, and 15.10 g) are applied to the hind paws. The von Frey hairs are presented perpendicular to the plantar surface with sufficient force to cause slight bending. Stimuli are presented at intervals of several seconds. A positive response is noted if the paw is sharply withdrawn or if flinching immediately upon removal of the hair is observed. On study days, behavioral endpoints are evaluated 1 hour post-dose. Score patterns are evaluated using the Dixon up-down method, and translated to a response threshold (1980, Ann Rev Pharmacol Toxicol 20:441-462). The maximum applied force is 15.10 grams. The initial behavior assessment occurs on Day 10 of the study, and subsequent measures are made on Study Days 12, 15, and 18.
Results are expressed as mean values with standard errors of the mean (mean±SE) for an n of 12 per group. All statistical evaluations are conducted utilizing a one-way ANOVA followed by comparison to the control group by Dunnett's Method. Statistical significance is assumed when p<0.05. Statistical analyses are performed using JMP statistical analysis software (SAS Research Institute, version 6.0.2).

The nature of data set [3]: Dose-ranging toxicity study in beagle dogs. Format: in vivo, dog. The conditions noted are these: both sexes, beagle, dog, 30 mg/kg single oral dose, plasma. As to the method: (§2) One male and one female beagle dog are used to evaluate the acute toxicity after a single oral gavage dose of CB2 agonist. The dogs are housed individually and maintained in a constant temperature and on a 12 hour light/12 hour dark cycle. CB2 agonist is prepared in vehicle (1% hydroxyethylcellulose, 0.25% polysorbate 80, and 0.05% Dow Corning® Antifoam 1510-US in purified water) and administered by oral gavage at a dose volume of 2 mL/kg. Dogs are observed for mortality and clinical observations (before dosing, 2 hours postdose, in the afternoon and daily thereafter). Food consumption is assessed by daily visual assessment of food remaining. Blood is collected before dosing and 48 hours after dosing to evaluate effects on haematology and clinical chemistry parameters. Blood is collected at 0.5, 1, 2, 4, 8, and 24 hours postdose to evaluate toxicokinetic plasma drug concentrations.

In a further data set the test system is beagle dog. The experiment in a line: Dose-ranging toxicity study in beagle dogs. Type of data set: in vivo. To be noted: single oral dose of 30 mg/kg. As to the method: as §2
The target in another data set is T3, rat CB2 receptor (Rattus norvegicus, UniProt Q9QZN9).
T3 construct: expressed in transfected cells
T3 sequence (Q9QZN9 1-360): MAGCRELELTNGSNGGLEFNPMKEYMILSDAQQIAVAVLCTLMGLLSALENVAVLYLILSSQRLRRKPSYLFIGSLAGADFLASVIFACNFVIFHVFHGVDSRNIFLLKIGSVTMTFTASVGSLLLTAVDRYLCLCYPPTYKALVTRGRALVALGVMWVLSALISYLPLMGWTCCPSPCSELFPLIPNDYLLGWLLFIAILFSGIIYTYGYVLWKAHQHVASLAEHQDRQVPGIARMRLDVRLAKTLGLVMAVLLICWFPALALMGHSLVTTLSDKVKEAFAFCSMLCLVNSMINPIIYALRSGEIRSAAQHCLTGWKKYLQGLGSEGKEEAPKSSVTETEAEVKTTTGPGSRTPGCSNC
Kind of data set: Displacement of 3H-CP55940 from rat CB2 receptors. Format: binding. The method, then:
(§3) The methods of Felder et al. (Mol. Pharmaocol. 48:443-450, 1995) were utilized with minor modifications. Specifically, membrane homogenates from cells stably or transiently expressing the human or rat CB2 receptor were washed by centrifugation and diluted into a 50 mM Tris HCl (pH 7.4), 5 mM MgCl2, 2.5 mM EDTA, and 0.1% BSA buffer. Specific binding of 3H-CP55940 was defined with 1 μM CP55940. The ability of compounds to displace specific 3H-CP55940 binding was tested over a range of concentrations in the Tris, MgCl2, EDTA, BSA buffer in the presence of 1% dimethyl sulfoxide by incubating at room temperature for 90 minutes in a volume of 300 μl. Unifilter 96-well microplates pretreated with 0.5% polyvinylpyrrolidone, 0.1% polysorbate 20 in water were washed three times with cold Tris buffer. The reaction mixture was then transferred to the filter plate immediately before terminating the incubation by rapid filtration and three 200 μl washes with cold Tris buffer. After the filter plates dried, microscint 20 was added to each well, the plate sealed and counted for determination of disintegrations per minute. The displacement curves were graphed and the resulting Ki values determined utilizing Graphpad Prism.
(In a radioligand displacement assay an active substance lowers the binding of a labelled ligand.)

Data set [4] has as its target T1, hCB2. The experiment in a line: Displacement of 3H-CP55940 from human CB2 receptors. The conditions noted are these: 3H-CP55940 displacement. Also noted: expressed in transfected cells. Type of data set: binding. As to the method: as §3

Usually EC50 stands for the midpoint of the concentration-response curve. The term Ki denotes a measure of affinity in units of concentration, obtained from inhibition or displacement.

Structures are written as SMILES. Where a name gives a salt, the structure may show the parent alone. Read-outs that look alike come from different tables or passages of the source.

T2 sequence (P21554 whole entry): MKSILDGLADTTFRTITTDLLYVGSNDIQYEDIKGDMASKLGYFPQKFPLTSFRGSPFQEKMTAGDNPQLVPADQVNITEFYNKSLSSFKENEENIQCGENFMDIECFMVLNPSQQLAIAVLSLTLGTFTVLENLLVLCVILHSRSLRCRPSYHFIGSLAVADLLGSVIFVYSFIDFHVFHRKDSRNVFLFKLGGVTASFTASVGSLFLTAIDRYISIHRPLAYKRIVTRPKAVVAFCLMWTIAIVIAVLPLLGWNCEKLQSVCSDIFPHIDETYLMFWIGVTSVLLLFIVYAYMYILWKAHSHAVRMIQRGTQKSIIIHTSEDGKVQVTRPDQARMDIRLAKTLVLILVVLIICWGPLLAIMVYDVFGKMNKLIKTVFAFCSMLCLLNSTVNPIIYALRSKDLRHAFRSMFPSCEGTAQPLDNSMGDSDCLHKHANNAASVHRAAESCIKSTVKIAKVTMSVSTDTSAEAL

As for `Cc1nc(N2CCN(C)CC2)c2nc(-c3ccccc3Cl)n(C(C)CO)c2n1.Cl` (single isomer, unassigned; isomer 2) [Example 19, 2-[8-(2-Chloro-phenyl)-2-methyl-6-(4-methyl-piperazin-1-yl)-purin-9-yl]-propan-1-ol hydrochloride, Isomer 2], the EC50 at hCB2 [1] (agonist mode, hCB2-Sf9 membranes, read-out: relative EC50 value for CB2) is 22.4 nM; on hCB1 (agonist mode, hCB1-CHO membranes, read-out: relative EC50 value for CB1) it was over 100000 nM. The “pain versus vehicle (difference in hind paw weight bearing)” value with male Lewis rats (dose of 0.3 mg/kg) and with male Lewis rats (dose of 1 mg/kg) was “reduce pain versus vehicle” each time. The “allodynia compared to both vehicle and morphine-treated animals” value in data set [2] (10 mg/kg oral twice daily, over the duration of the study (Day 18)) is listed as “developed less allodynia”. Also, the “Mean paw withdrawal latencies (mean ± SE)” value in data set [2] (Day 10, 10 mg/kg oral twice daily) was 11.25 ± 1.31; in data set [2] (Day 12, 10 mg/kg oral twice daily) it was 7.38 ± 0.95; in data set [2] (Day 15, 10 mg/kg oral twice daily), 7.90 ± 1.04; in data set [2] (Day 18, 10 mg/kg oral twice daily), 6.02 ± 0.72. In addition, the AUC(0-t) in data set [3] (read-out: mean Area-Under the Curve from 0-24 hours (AUC0-24hr)) is 44500 ng·h/mL. Further, in data set [3] (read-out: mean maximum concentration (Cmax)), the Cmax was 7540 ng/mL. Besides, the faeces entry in the data set on beagle dog (female dog) is “Decreased faeces”. Further, in the data set with beagle dog (female dog), the food consumption entry was “minimal decreased food consumption”. Moreover, in the data set on beagle dog (female dog, 48 hours after dosing), the “decrease in reticulocyte count, change relative to pre-dose” value was determined as 39%. Further, in the data set on beagle dog (one male and one female dog), the Post-dose clinical observations result is “limited to vomiting and dilated pupils”.
Take `COC(C)(C)Cn1c(-c2ccccc2Cl)nc2c(N3CCN(C(C)=O)CC3)nc(C)nc21` [Example 8, 1-[4-[8-(2-Chlorophenyl)-9-(2-methoxy-2-methyl-propyl)-2-methyl-purin-6-yl]piperazin-1-yl]ethanone]: the Ki at rat CB2 receptor came to 37.5 nM; on hCB2 [4], 142 nM.
Turning to `CN1CC[C@]23c4c5ccc(O)c4O[C@H]2[C@@H](O)C=C[C@H]3[C@H]1C5` [Morphine, reference compound], the “Mean paw withdrawal latencies (mean ± SE)” value was found to be 8.16 ± 1.22 in data set [2] (Day 10, 5 mg/kg twice daily); 3.67 ± 0.30 in data set [2] (Day 12, 5 mg/kg twice daily); 3.84 ± 0.45 in data set [2] (Day 15, 5 mg/kg twice daily); 3.46 ± 0.42 in data set [2] (Day 18, 5 mg/kg twice daily).
For `COCCCn1c(-c2ccccc2Cl)nc2c(N3CCN(CCF)CC3)nc(C)nc21` [Example 6, 8-(2-Chlorophenyl)-6-[4-(2-fluoroethyl)piperazin-1-yl]-9-(3-methoxypropyl)-2-methyl-purine hydrochloride], the results for the EC50 at hCB2 [1] and at hCB1 were 2.7 nM and over 100000 nM, respectively.
With `Cc1nc(N2CCN(C)CC2)c2nc(-c3ccccc3Cl)n(C(C)CO)c2n1.Cl` (single isomer, unassigned; isomer 1) [Example 18, 2-[8-(2-Chloro-phenyl)-2-methyl-6-(4-methyl-piperazin-1-yl)-purin-9-yl]-propan-1-ol hydrochloride, Isomer 1], the “pain versus vehicle (difference in hind paw weight bearing)” value in the data set on male Lewis rats (dose of 0.3 mg/kg) is reported as “reduce pain versus vehicle”.
Consider `CC(=O)N1CCN(c2nc(C)nc3c2nc(-c2ccccc2Cl)n3CC(C)(C)O)CC1` [Example 13, 1-[4-[8-(2-Chlorophenyl)-9-(2-hydroxy-2-methyl-propyl)-2-methyl-purin-6-yl]piperazin-1-yl]ethanone hydrochloride], for which the Ki at rat CB2 receptor (3H-CP55940 displacement, rat CB2, read-out: rat receptor Ki value) turned out to be 215 nM; at hCB2 [4] it was 65.2 nM.
